The text below walks through data of PMC9259847, “Baicalin Induces a Potent Innate Immune Response to Inhibit Respiratory Syncytial Virus Replication via Regulating Viral Non-Structural 1 and Matrix RNA” (Frontiers in Immunology, 2022).

The target in this assay is T1, NS1 protein (RSV non-structural protein NS1) (Human respiratory syncytial virus A2, UniProt P0DOE9).
T1 construct: gene 1C; NS1 coupled to CM5 chip
The assay is described as follows: SPR (Biacore T200, NS1 coupled to CM5 chip). The class given is binding. On the technique in general: SPR reads the build-up and loss of mass on a sensor chip optically.

T1 sequence (P0DOE9 whole entry): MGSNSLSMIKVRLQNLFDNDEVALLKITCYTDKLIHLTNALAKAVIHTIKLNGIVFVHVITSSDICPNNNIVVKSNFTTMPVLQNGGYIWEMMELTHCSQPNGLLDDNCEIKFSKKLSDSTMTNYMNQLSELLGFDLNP

The Kd is the constant that tells how readily two partners part at equilibrium. As for `O=C(O)[C@H]1O[C@@H](Oc2cc3oc(-c4ccccc4)cc(=O)c3c(O)c2O)[C@H](O)[C@@H](O)[C@@H]1O` [baicalin], binding was characterised by a dissociation constant (Kd) of 11.2 µM.
